Reference: PMC11078990, “Identification and characterization of small molecule inhibitors of the LINE-1 retrotransposon endonuclease” (Nature Communications, 2024)
Where “and” joins values, the source holds several entries; their conditions need not be identical. Identical values can stand only once.

What follows are molecules tested on substrate oligonucleotide used in the EN activity assay (assay: not given). Conditions: not given.
Type: binding
Parameters: key to Binding Detected? (Y/N): Binding Detected? (Y/N); Binding Detected? (Y/N)

Row | Structure (SMILES) | Binding Detected? (Y/N)
1 | O=C(O)C1CCC(Cn2c(=S)[nH]c3ccc(F)cc3c2=O)CC1 (centres unmarked) [AD41] | N

These molecules were tested against T1, APE1 (Homo sapiens, UniProt P27695) (assay: APE1 fluorescent oligonucleotide activity assay (abasic site substrate)). Conditions: compound at 25 μM; Replicate 1.
T1 construct: purchased New England Biolabs (NEB) M0282S
Type: biochemical

Row | Structure (SMILES) | APE1 percent activity, Replicate 1 [%]
2 | O=C(O)C1CCC(Cn2c(=S)[nH]c3ccc(F)cc3c2=O)CC1 (centres unmarked) [AD41] | 117.184

Same assay, conditions: compound at 25 μM; Replicate 2

Row | Structure (SMILES) | APE1 percent activity, Replicate 2 [%]
3 | O=C(O)C1CCC(Cn2c(=S)[nH]c3ccc(F)cc3c2=O)CC1 (centres unmarked) [AD41] | 102.457

Same assay, conditions: compound at 25 μM; Replicate 3

Row | Structure (SMILES) | APE1 percent activity, Replicate 3 [%]
4 | O=C(O)C1CCC(Cn2c(=S)[nH]c3ccc(F)cc3c2=O)CC1 (centres unmarked) [AD41] | 114.725

Same assay, conditions: compound at 25 μM; average of 3 replicates

Row | Structure (SMILES) | APE1 percent activity, average [%]
5 | O=C(O)C1CCC(Cn2c(=S)[nH]c3ccc(F)cc3c2=O)CC1 (centres unmarked) [AD41] | 111.455

Same assay, conditions: inhibitors at 25 μM; relative to 0 μM inhibitor control; mean ± s.d., 3 independent experiments; read-out: APE1 activity (%)

Row | Structure (SMILES) | activity at 25 µM [%]
6 | O=C(O)C1CCC(Cn2c(=S)[nH]c3ccc(F)cc3c2=O)CC1 (centres unmarked) [AD41] | 112 ± 7.9

The molecules below were run against L1 EN (LINE-1 retrotransposon endonuclease domain) (Homo sapiens, UniProt O00370, N5T) (assay: Fluorescent oligonucleotide EN nicking activity assay). Conditions: [Inhibitor] 10 μM; technical replicates 1-3, Fig. 2b source data; 10 µM.
Type: biochemical

Sequence of L1 EN (LINE-1 retrotransposon endonuclease domain) (O00370 1-239 N5T): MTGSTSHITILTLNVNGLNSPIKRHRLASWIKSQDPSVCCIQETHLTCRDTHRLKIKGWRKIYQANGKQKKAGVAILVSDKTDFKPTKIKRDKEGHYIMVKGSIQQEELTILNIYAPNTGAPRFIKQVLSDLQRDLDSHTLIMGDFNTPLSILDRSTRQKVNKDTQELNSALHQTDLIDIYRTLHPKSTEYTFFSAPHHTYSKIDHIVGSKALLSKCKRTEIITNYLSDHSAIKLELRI

Row | Structure (SMILES) | EN activity, percent of no inhibitor control
7 | O=C(O)C1CCC(Cn2c(=S)[nH]c3ccc(F)cc3c2=O)CC1 (centres unmarked) [AD41] | 93.0871% and 88.0691%

Same assay, conditions: [Inhibitor] 10 μM; technical replicates 1-3, Fig. 2b source data; read-out: EN activity, percent of no inhibitor control

Row | Structure (SMILES) | remaining activity at 10 µM [%]
8 | O=C(O)C1CCC(Cn2c(=S)[nH]c3ccc(F)cc3c2=O)CC1 (centres unmarked) [AD41] | 99.2

Same assay, conditions: [Inhibitor] 50 μM; technical replicates 1-3, Fig. 2b source data; 50 µM

Row | Structure (SMILES) | EN activity, percent of no inhibitor control
9 | O=C(O)C1CCC(Cn2c(=S)[nH]c3ccc(F)cc3c2=O)CC1 (centres unmarked) [AD41] | 81.1063% and 95.3657%

Same assay, conditions: [Inhibitor] 50 μM; technical replicates 1-3, Fig. 2b source data; read-out: EN activity, percent of no inhibitor control

Row | Structure (SMILES) | remaining activity at 50 µM [%]
10 | O=C(O)C1CCC(Cn2c(=S)[nH]c3ccc(F)cc3c2=O)CC1 (centres unmarked) [AD41] | 81.9

Same assay, conditions: [Inhibitor] 100 μM; technical replicates 1-3, Fig. 2b source data; 100 µM

Row | Structure (SMILES) | EN activity, percent of no inhibitor control
11 | O=C(O)C1CCC(Cn2c(=S)[nH]c3ccc(F)cc3c2=O)CC1 (centres unmarked) [AD41] | 73.6781% and 70.7755%

Same assay, conditions: [Inhibitor] 100 μM; technical replicates 1-3, Fig. 2b source data; read-out: EN activity, percent of no inhibitor control

Row | Structure (SMILES) | remaining activity at 100 µM [%]
12 | O=C(O)C1CCC(Cn2c(=S)[nH]c3ccc(F)cc3c2=O)CC1 (centres unmarked) [AD41] | 89.5

Same assay, conditions: [Inhibitor] 250 μM; technical replicates 1-3, Fig. 2b source data; 250 µM

Row | Structure (SMILES) | EN activity, percent of no inhibitor control
13 | O=C(O)C1CCC(Cn2c(=S)[nH]c3ccc(F)cc3c2=O)CC1 (centres unmarked) [AD41] | 52.6672% and 53.2546%

Same assay, conditions: [Inhibitor] 250 μM; technical replicates 1-3, Fig. 2b source data; read-out: EN activity, percent of no inhibitor control

Row | Structure (SMILES) | remaining activity at 250 µM [%]
14 | O=C(O)C1CCC(Cn2c(=S)[nH]c3ccc(F)cc3c2=O)CC1 (centres unmarked) [AD41] | 37.1

Same assay, conditions: [Inhibitor] 500 μM; technical replicates 1-3, Fig. 2b source data; 500 µM

Row | Structure (SMILES) | EN activity, percent of no inhibitor control
15 | O=C(O)C1CCC(Cn2c(=S)[nH]c3ccc(F)cc3c2=O)CC1 (centres unmarked) [AD41] | 15.8485% and 15.0123%

Same assay, conditions: [Inhibitor] 500 μM; technical replicates 1-3, Fig. 2b source data; read-out: EN activity, percent of no inhibitor control

Row | Structure (SMILES) | remaining activity at 500 µM [%]
16 | O=C(O)C1CCC(Cn2c(=S)[nH]c3ccc(F)cc3c2=O)CC1 (centres unmarked) [AD41] | 16.8

Same assay, conditions: [Inhibitor] 1000 μM; technical replicates 1-3, Fig. 2b source data; 1000 µM

Row | Structure (SMILES) | EN activity, percent of no inhibitor control
17 | O=C(O)C1CCC(Cn2c(=S)[nH]c3ccc(F)cc3c2=O)CC1 (centres unmarked) [AD41] | 2.51% and 3.937%

Same assay, conditions: [Inhibitor] 1000 μM; technical replicates 1-3, Fig. 2b source data; read-out: EN activity, percent of no inhibitor control

Row | Structure (SMILES) | remaining activity at 1000 µM [%]
18 | O=C(O)C1CCC(Cn2c(=S)[nH]c3ccc(F)cc3c2=O)CC1 (centres unmarked) [AD41] | 3.26

Same assay, conditions: [Inhibitor] 2500 μM; technical replicates 1-3, Fig. 2b source data; 2500 µM

Row | Structure (SMILES) | EN activity, percent of no inhibitor control
19 | O=C(O)C1CCC(Cn2c(=S)[nH]c3ccc(F)cc3c2=O)CC1 (centres unmarked) [AD41] | -0.5395% and 2.354% and 1.088%

Same assay, conditions: [Inhibitor] 5000 μM; technical replicates 1-3, Fig. 2b source data; 5000 µM

Row | Structure (SMILES) | EN activity, percent of no inhibitor control
20 | O=C(O)C1CCC(Cn2c(=S)[nH]c3ccc(F)cc3c2=O)CC1 (centres unmarked) [AD41] | 3.138% and -0.1325% and -0.6231%
